# How the values were obtained:
# Heat shock protein HSP90 = Heat shock protein HSP90 (Homo sapiens, UniProt P07900+P08238)
# Description: Binding affinity to Hsp90 by fluorescent polarization assay
# HCT-116 = test: Inhibition of cell proliferation in HCT116 human colon cancer cell line; assay type: functional
# BT-474 = test: Inhibition of cell proliferation in BT474 human breast cancer cell line after 48 hr exposure; assay type: functional; settings: BT-474, 48 h
structure (smiles),measurement,setting,value
Cc1cc(C)c(S(=O)(=O)Nc2ccc(O)c(-c3c(O)ccc4ccccc34)c2)cc1C,IC50,Heat shock protein HSP90,15.2 µM
O=S(=O)(Nc1ccc(O)c(-c2c(O)ccc3ccccc23)c1)c1ccccc1,IC50,Heat shock protein HSP90,3.3 µM
CC(C)(C)c1ccc(S(=O)(=O)Nc2ccc(O)c(-c3c(O)ccc4ccccc34)c2)cc1,IC50,Heat shock protein HSP90,26.4 µM
O=S(=O)(Nc1ccc(O)c(-c2c(O)ccc3ccccc23)c1)c1ccc(F)cc1,IC50,Heat shock protein HSP90,8.8 µM
C=CCNC1=C2C[C@@H](C)C[C@H](OC)[C@H](O)[C@@H](C)/C=C(\C)[C@H](OC(N)=O)[C@@H](OC)/C=C\C=C(/C)C(=O)NC(=CC1=O)C2=O [TANESPIMYCIN],GI50,HCT-116,0.16 µM
C[C@@H]1C[C@H]2O[C@@H]2/C=C\C=C\C(=O)Cc2c(Cl)c(O)cc(O)c2C(=O)O1 [RADICICOL],GI50,HCT-116,0.13 µM
O=S(=O)(Nc1ccc(O)c(-c2c(O)ccc3ccccc23)c1)c1ccc(Br)cc1,IC50,Heat shock protein HSP90,6.1 µM
CCc1ccc(S(=O)(=O)Nc2ccc(O)c(-c3c(O)ccc4ccccc34)c2)cc1,IC50,Heat shock protein HSP90,6.6 µM
O=S(=O)(Nc1ccc(O)c(-c2c(O)ccc3ccccc23)c1)c1cccs1,GI50,HCT-116,59.8 µM
same,IC50,Heat shock protein HSP90,0.6 µM
O=S(=O)(Nc1ccc(O)c(-c2c(O)ccc3ccccc23)c1)c1cc(Cl)ccc1Cl,GI50,HCT-116,29 µM
same,GI50,BT-474,34.9 µM
O=S(=O)(Nc1ccc(O)c(-c2c(O)ccc3ccccc23)c1)c1ccc(Cl)cc1,GI50,HCT-116,27.8 µM
same,IC50,Heat shock protein HSP90,2.2 µM

# Reference: ChEMBL document CHEMBL1141210, “Structure-based discovery of a new class of Hsp90 inhibitors” (Bioorg Med Chem Lett, 2005)
